The test system of series [1] is GPC3-expressing hepatoma cells. The experiment in a line: Cell-killing effect (CCK-8) of gemcitabine-bound combi aptamers. The format is cell-based. The note with it: FIG. 23 and FIG. 24. Here is the method: In detail, Huh-7 cells (ATCC, Rockville, MD, USA) were seeded in a 96-well plate at a density of 1×10^4/mL, and cultured using a DMEM (Gibco, Grand Island, NY, USA) medium containing 10% FBS (Gibco, Grand Island, NY, USA) and 1% antibiotics (penicillin/streptomycin) under conditions of 5% CO2 and 37° C. Next day, the aptamer stock (100 μM) was mixed with 5×SB18 buffer to prepare the stock at a concentration of 80 μM, and heated at 95° C. for 5 min, and then cooled at room temperature for 15 min or more. The medium was removed from the cultured cells, and 100 μL of a serum-free medium was added thereto, and cultured under conditions of 37° C. and 5% CO2 for 1 hr. The serum-free medium was removed, and then the cells were washed with 100 μL of 1×PBS. 100 μL of KRPH buffer was added, and cultured under conditions of 37° C. and 5% CO2 for 1 hr. The aptamer was diluted with KRPH buffer to 2-fold of the desired concentration, and added to a 96-well plate at 1× concentration, and cultured under conditions of 37° C. and 5% CO2 for 4 hr. After treatment with the aptamer, the KRPH buffer was removed, and then 100 μL of culture medium was added and cultured under conditions of 37° C. and 5% CO2 for […]. 6 days later, 10 μL of a kit solution of CCK-8 (Cell Counting Kit-8) was added to each well, and then cultured under conditions of 37° C. and 5% CO2 for 3 hr. Cell death levels were examined at […] using a microplate reader.

Series [2] has as its system hepatoma cells (Hep3B, HepG2). The experiment in a line: Cell cycle analysis (propidium iodide, FACS). To be noted: 4 hr treatment, FIGS. 25 and 26. The format is cell-based. Here is the method: (§1) To analyze the effects of combi 4 and combi 5 bound with three or five gemcitabines on the cell cycle of hepatoma cells, cell cycle analysis was performed. In detail, Hep3B, HepG2, and A431 cells were seeded in a 6-well plate at a density of 1×10^6/ml, and cultured using a DMEM medium containing 10% FBS and 1% antibiotics (penicillin/streptomycin) under conditions of 5% CO2 and 37° C., respectively. Next day, 100 μM of the modified aptamer stock was mixed with 5×SB18 buffer to prepare the aptamer at a concentration of 80 μM, and heated at 95° C. for 5 min, and then cooled at room temperature for 15 min or more. The medium was removed from the cultured cells, and replaced by a serum-free medium, and cultured under conditions of 37° C. and 5% CO2 for 1 hr. The serum-free medium was removed, and then the cells were washed with 2 ml of 1×PBS. 2 ml of KRPH buffer was added, and cultured under conditions of 37° C. and 5% CO2 for 1 hr. The aptamer was added, and cultured under conditions of 37° C. and 5% CO2 for 4 hr. The KRPH buffer was removed, and 2 ml of 1×PBS was added thereto to perform washing, and then PBS was removed. 2 ml of 1×PBS was added, and cells were scraped using a scraper, and collected in FACs tubes, followed by centrifugation at 4° C. and 2000 rpm for 4 minutes. 1/500-fold diluted RNAase A and propidium iodide diluted with PBS at a concentration of 50 μg/ml were added to the FACs tubes at a volume of 500 μL, followed by pipetting. Incubation was performed at room temperature for 30 min while blocking the light, and then cell cycle was measured.

In series [3] the test system is squamous cell carcinoma cells (A431). Nature of the series: Cell cycle analysis (propidium iodide, FACS). The note with it: 4 hr treatment, FIG. 27. Format: cell-based. Here is the method:
as §1

A further series deals with GPC3 (Homo sapiens, UniProt P51654). Nature of the series: Protein binding assay with 32P-labeled aptamers (Zorbax resin, filter plate, phosphorimager). To be noted: FIG. 1. Here is the method:
To select an aptamer which is the most specific to GPC3 from 7 aptamer libraries expected to be specific to GPC3 [2428-12-09, 2428-12-10, 2428-12-11, 2424-30-01, 2424-30-05, 2424-30-06, 2424-30-07, all 40-mer], a binding assay was performed through […] labeling. In detail, to […] RI-labeled and unlabeled oligonucleotide region at the oligonucleotide 3′-end of each candidate aptamer sequence, 0.25 μL of α-32P, 0.25 μL of DNA nucleotidylexotransferase (terminal transferase), 1 μL of 10×NEB buffer (New England Biolabs, USA), 1 μL of CoCl2, 7.5 μL of a template (aptamer sequence) (total 10 μL) were added to a plate, which was then sealed with foil, and then incubated at 37° C. for 30 min (enzyme incubation). After incubation at 70° C. for 10 min (enzyme incubation), each of the incubated samples was diluted with 30 μL of distilled water. The lower part of the Microspin G-50 column was removed and a tube was put thereon. After spinning at 800 rcf for 1 min, the tube was removed. The sample was put in a resin, followed by spinning at room temperature and 800 rcf for 2 min.
The aptamers, from which RI-labeled and unlabeled oligonucleotide ends were removed, were diluted with 100 μL of 1×SB18T0.05 to 20,000 cpm. The aptamers were heated at 95° C. for 5 min, and subsequently, cooled at 37° C. for 15 min. 100 nM of protein (GPC3) was subjected to 4.64-fold serial dilution, and each 30 μL of a total of 8 points was added to each well. 200 μL of 1×SB18T0.05 was added to the aptamers, of which heating and cooling were completed, and then 30 μL thereof was added to each well for a total volume of 60 μL. 2 μL of the aptamer was dropped as an input control on a nylon filter, followed by incubation at 37° C. for 30 min. During incubation, 30 μL of 1×SB18T0.05 was added to a filter plate in advance. After incubation, 5.5 μL of Zorbax resin was added, and allowed to react at 1400 rpm for 1 min. […] The screen was analyzed, and the binding degree according to each protein concentration was derived (percentage bound value).

Chain of GPC3 (P51654 25-554): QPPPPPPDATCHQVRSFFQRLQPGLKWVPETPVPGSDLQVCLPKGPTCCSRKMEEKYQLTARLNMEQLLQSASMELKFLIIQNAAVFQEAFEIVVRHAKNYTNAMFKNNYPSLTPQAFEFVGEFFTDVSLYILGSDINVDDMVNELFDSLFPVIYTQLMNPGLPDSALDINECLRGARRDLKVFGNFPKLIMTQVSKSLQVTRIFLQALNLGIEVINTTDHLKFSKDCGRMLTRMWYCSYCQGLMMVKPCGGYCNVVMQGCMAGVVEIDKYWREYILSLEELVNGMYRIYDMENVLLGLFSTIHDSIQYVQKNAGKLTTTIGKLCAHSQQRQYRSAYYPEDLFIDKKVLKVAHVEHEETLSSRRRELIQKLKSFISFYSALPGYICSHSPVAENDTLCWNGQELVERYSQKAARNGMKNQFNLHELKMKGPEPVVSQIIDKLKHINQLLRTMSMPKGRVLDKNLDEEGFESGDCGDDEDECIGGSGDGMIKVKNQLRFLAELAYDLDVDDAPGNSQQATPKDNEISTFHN

As to “Combi 5 G(5) (DNA GNGAANGCGNNGAANNANWYSSSNNCAGNCANSAS; 5 gemcitabines, 2'-OMe, BzdU; Combi 5 G(5); (1)..(1) G is 2-O-Methoxy-DNA.; (2)..(2) n is BzdU.; (3)..(3) G is 2-O-Methoxy-DNA.; (4)..(4) A is 2-Fluorine-DNA.; (5)..(5) A is 2-Fluorine-DNA.; (6)..(6) n is BzdU.; (10)..(10) n is BzdU.; (11)..(11) n is BzdU.; (12)..(12) G is 2-Fluorine-DNA.; (13)..(13) A is 2-Fluorine-DNA.; (14)..(14) A is 2-O-Methoxy-DNA.; (15)..(15) n is BzdU.; (16)..(16) n is BzdU.; (17)..(17) A is 2-O-Methox)”, the “concentration from which a cell-killing effect is shown” value (“concentration” below) in series [1] was 100 nM. Further, the cell cycle arrest result in series [2] is “arrested hepatoma cells at the G1/S phase”; in series [3], “no cell cycle arrest”.
In the case of “Combi 4 G(5) (DNA GNGAANGCGNNGAANNANGYSSSNNCAGNCANSAS; 5 gemcitabines, 2'-OMe, 2'-F, BzdU, 3' idT; Combi 4 G(5); (1)..(1) G is 2-O-Methoxy-DNA.; (2)..(2) n is BzdU.; (3)..(3) G is 2-O-Methoxy-DNA.; (4)..(4) A is 2-Fluorine-DNA.; (5)..(5) A is 2-Fluorine-DNA.; (6)..(6) n is BzdU.; (10)..(10) n is BzdU.; (11)..(11) n is BzdU.; (12)..(12) G is 2-Fluorine-DNA.; (13)..(13) A is 2-Fluorine-DNA.; (14)..(14) A is 2-Fluorine-DNA.; (15)..(15) n is BzdU.; (16)..(16) n is BzdU.; (17)..(17) A is 2-Fluorine-)”, in series [1], the “concentration” value was found to be 100 nM. In addition, the cell cycle arrest entry was “arrested hepatoma cells at the G1/S phase” in series [2] and “no cell cycle arrest” in series [3].
For orientation: Kd means the constant that tells how readily two partners part at equilibrium. As to “12-10: SEQ ID NO: 1, 40-mer GPC3-specific aptamer with BzdU bases (GGGAAGnGAAnGCGnnGAAnnAnGnCCCnnCAGnCAnCAC; BzdU bases, as printed in the source, key not given here)”, the “binding ability among the candidates” value with GPC3 (7 candidate 40-mer aptamers) is given as “most excellent binding ability”. For the same molecule, the “maximum binding capacity (Bmax)” value with GPC3 amounted to 0.79. Moreover, the dissociation constant Kd with GPC3 (read-out: dissociation constant (Kd)) is 1.5 nM.
“Combi 11 G(3) (DNA GNGAANGCGNNGAANNANWYSSSNNCAGNCANCAC; gemcitabines, 2'-MOE, 2'-F, BzdU, 3' idT; Combi 11 G(3); (1)..(1) G is 2-Methoxyethyl-DNA.; (2)..(2) n is BzdU.; (3)..(3) G is 2-Methoxyethyl-DNA.; (4)..(4) A is 2-Fluorine-DNA.; (5)..(5) A is 2-Fluorine-DNA.; (6)..(6) n is BzdU.; (10)..(10) n is BzdU.; (11)..(11) n is BzdU.; (12)..(12) G is 2-Fluorine-DNA.; (13)..(13) A is 2-Fluorine-DNA.; (14)..(14) A is 2-Methoxyethyl-DNA.; (15)..(15) n is BzdU.; (16)..(16) n is BzdU.; (17)..(17) A is)”: the “concentration” value in series [1] stood at 200 nM.
Take `Nc1ccn([C@@H]2O[C@H](CO)[C@@H](O)C2(F)F)c(=O)n1` [gemcitabine, 2′,2′-difluoro 2′-deoxycytidine, reference compound]: the cell cycle arrest entry in series [3] is “no cell cycle arrest”.

The record behind these values is patent publication US12668803B2, “Glypican-3-specific modified aptamer and use thereof” (APTAMER SCIENCES INC., priority 2019, dated 2026).
